# Laboratory results as given in US20250066425A1, “POLYPEPTIDE AND APPLICATION THEREOF IN PREPARATION OF ANTI-FIBROSIS DRUG” (priority 2022, published 2025).
# Residues, ends and D or L forms follow the SMILES beside them.
# Test: toxic or side effect on mice after injection for several times (serum biochemistry)
# Format: in vivo, C57 mice
# Procedure: During sampling of the mice with myocardial infarction modeling for 4 weeks and intramyocardial injection of the polypeptide PAFRK29 for 5 times in Example 6, peripheral blood of the mice was collected into an anticoagulant tube and centrifuged at 1,000 g for 10 minutes. Serum of a supernatant was taken, and levels of blood urea nitrogen (BUN), serum alanine aminotransferase (ALT) and serum aspartate aminotransferase (AST) were determined by an automatic biochemical analyzer.
# [1] = myocardial infarction mice, 4 weeks, intramyocardial injection 5 times, vs control group
compound,measurement,setting,value
CC(C)[C@H](NC(=O)[C@@H]1CCCN1C(=O)[C@H](Cc1c[nH]cn1)NC(=O)[C@H](CCCCN)NC(=O)[C@H](Cc1ccc(O)cc1)NC(=O)[C@H](CCC(N)=O)NC(=O)[C@H](CCCNC(=N)N)NC(=O)[C@H](CO)NC(=O)[C@H](Cc1c[nH]cn1)NC(=O)[C@H](Cc1ccccc1)NC(=O)[C@H](Cc1ccc(O)cc1)NC(=O)[C@H](CCC(N)=O)NC(=O)CNC(=O)[C@H](CCC(N)=O)NC(=O)[C@H](Cc1ccccc1)NC(=O)[C@H](CCCNC(=N)N)NC(=O)[C@H](CCCNC(=N)N)NC(=O)[C@H](CCCNC(=N)N)NC(=O)[C@H](CCC(N)=O)NC(=O)[C@H](CCCNC(=N)N)NC(=O)[C@H](CCCNC(=N)N)NC(=O)[C@H](CCCCN)NC(=O)[C@H](CCCCN)NC(=O)[C@@H](N)CCCNC(=N)N)C(=O)NCC(=O)N[C@@H](Cc1ccc(O)cc1)C(=O)N[C@@H](CCC(=O)O)C(=O)NCC(=O)N[C@@H](CCCCN)C(=O)O [PAFRK29] (H-RKKRRQRRRFQGQYFHSRQYKHPVGYEGK-OH; N-terminus and C-terminus assumed),toxic or side effect on the mice,at an effective anti-fibrosis dose,no obvious toxic or side effect
same,level of blood urea nitrogen (BUN),[1],no obvious differences
same,level of serum alanine aminotransferase (ALT),[1],no obvious differences
same,level of serum aspartate aminotransferase (AST),[1],no obvious differences
